One compound from patent publication US20220213210A1, “COMBINATION THERAPY OF MULTIPLE SCLEROSIS COMPRISING A CD20 LIGAND” (MABION SA, priority 2017, published 2022) can be followed below.

The test system of the experiment is MOG-induced experimental allergic encephalomyelitis (EAE) murine model. The experiment in a line: MOG-induced experimental allergic encephalomyelitis (EAE) murine model, clinical score 0-15. The format is in vivo, Mouse/C57BL/6J. The conditions noted are these: dimethyl fumarate in therapeutic dose, 49 mg/kg PO bi-daily, Days 0-35 (Group 11). An excerpt: FIG. 1: Combination of MabionCD20DP and teriflunomide. MabionCD20DP and teriflunomide have been administered to an experimental allergic encephalomyelitis (EAE) mouse model. The MOG (myelin oligodendrocyte glycoprotein)-induced EAE murine model consists of a sensitization period, induced by the single SC injection of MOG emulsified in CFA (complete Freund's adjuvant) on Day 0, followed by IP supplemental immunostimulation with PT carried out once at the time of EAE induction and once again 48 hours later.
FIG. 2: Combination of MabionCD20DP and dimethyl fumarate. MabionCD20DP and dimethyl fumarate have been administered to an experimental allergic encephalomyelitis (EAE) mouse model. […]
Throughout the 36-day study, general clinical examinations were performed and recorded if any unexpected abnormalities are observed.
Body weight loss can be the first sign of disease initiation, while a sudden marked weight gain tends to accompany remission of EAE symptoms. Therefore, determination of individual body weights of animals was made shortly before EAE induction on Study Day 0 and was monitored on a daily basis throughout the 35-day observation period. […]

Structures are written as SMILES. Where a name gives a salt, the structure may show the parent alone.

Take `COC(=O)/C=C/C(=O)OC` [dimethyl fumarate]: the “disease parameters (EAE), FIG. 2” value is “reduction of the disease parameters”.
